Test results as given in paper PMC3556730 (Neuropharmacology, 2011).
Like-named read-outs stand apart in the source and are kept apart here.

What was measured:
[1] = target: 5-HT2AR (Mus musculus, UniProt P35363); experiment: [3H]Ketanserin competition binding, mouse striatum membranes
[2] = target: T1, 5-HT2AR (Homo sapiens, UniProt P28223); settings: HEK-5HT2AR
[3] = target: T1, 5-HT2AR
[4] = target: T1, 5-HT2AR; settings: HEK-5HT2AR; vehicle; mean ± SEM
[5] = target: T1, 5-HT2AR; settings: for Emax (inositol phosphate production): HEK-5HT2AR-D2R, mean ± SEM; for Effect on 5-HT-induced 5-HT2AR-IP3 production / Effect on DOI-induced 5-HT2AR-IP3 production: co-expressing cells, D2R agonist 10^−5 M
[6] = tested on: MK-801-induced locomotor activity; experiment: MK-801-induced locomotor activity in wild-type and 5-HT2AR-KO mice; format: in vivo; settings: MK-801 0.5 mg/kg i.p.; wild-type and 5-HT2AR-KO mice (similar)
[7] = mouse striatum, with quinpirole (10^−5 M)

T1 sequence (P28223 whole entry): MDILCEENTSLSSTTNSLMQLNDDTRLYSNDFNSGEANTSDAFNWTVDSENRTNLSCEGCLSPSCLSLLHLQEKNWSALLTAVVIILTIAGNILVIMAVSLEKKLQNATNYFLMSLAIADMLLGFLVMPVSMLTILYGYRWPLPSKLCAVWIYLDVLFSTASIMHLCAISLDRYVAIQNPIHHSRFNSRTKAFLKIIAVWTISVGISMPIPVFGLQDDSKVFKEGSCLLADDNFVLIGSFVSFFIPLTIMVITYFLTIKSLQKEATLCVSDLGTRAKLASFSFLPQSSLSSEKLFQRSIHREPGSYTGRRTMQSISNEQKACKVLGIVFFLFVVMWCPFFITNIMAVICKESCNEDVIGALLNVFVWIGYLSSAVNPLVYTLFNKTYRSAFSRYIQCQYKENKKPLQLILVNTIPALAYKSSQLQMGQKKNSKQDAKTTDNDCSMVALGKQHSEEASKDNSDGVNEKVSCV
5-HT2AR (Mus musculus, UniProt P35363), sequence (P35363 whole entry): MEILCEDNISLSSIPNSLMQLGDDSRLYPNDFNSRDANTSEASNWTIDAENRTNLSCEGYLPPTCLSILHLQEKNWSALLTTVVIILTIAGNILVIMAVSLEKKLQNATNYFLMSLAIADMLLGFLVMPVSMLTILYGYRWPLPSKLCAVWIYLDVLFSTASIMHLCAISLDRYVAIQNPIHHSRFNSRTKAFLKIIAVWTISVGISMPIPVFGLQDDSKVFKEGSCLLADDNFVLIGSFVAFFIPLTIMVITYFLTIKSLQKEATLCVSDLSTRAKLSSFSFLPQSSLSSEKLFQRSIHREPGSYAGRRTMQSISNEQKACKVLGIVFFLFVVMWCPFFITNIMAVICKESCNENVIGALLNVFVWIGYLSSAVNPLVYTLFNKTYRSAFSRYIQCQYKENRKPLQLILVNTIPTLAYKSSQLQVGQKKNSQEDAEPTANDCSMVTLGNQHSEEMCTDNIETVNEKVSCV

COc1cc(CC(C)N)c(OC)cc1I (racemic) [DOI, (+/−)-2,5-dimethoxy-4-iodoamphetamine]
Ki ([1]; Fig. 1C single experiment, control, one-site model): 95 nM | Ki ([1]; Fig. 1D single experiment, control, one-site model): 3300 nM | % High (percentage of high-affinity binding sites) [1, 7]: 44 ± 2% | Ki ([1]; read-out: Ki-high, mouse striatum, with quinpirole (10^−5 M), two-site model, mean ± SEM): 0.065 nM | Ki ([1]; read-out: Ki-low, mouse striatum, vehicle, one-site model, mean ± SEM): 250 nM | Ki ([1]; read-out: Ki-low, mouse striatum, with quinpirole (10^−5 M) + raclopride (10^−6 M), one-site model, mean ± SEM): 690 nM | Ki ([1]; read-out: Ki-low, mouse striatum, with quinpirole (10^−5 M), two-site model, mean ± SEM): 510 nM | Ki ([1]; read-out: Ki-low, mouse striatum, with raclopride (10^−6 M), one-site model, mean ± SEM): 660 nM | % High (percentage of high-affinity binding sites) ([2]; vehicle): 41 ± 5% | % High (percentage of high-affinity binding sites) ([2]; with quinpirole (10^−5 M)): 48% | % High (percentage of high-affinity binding sites) ([3]; HEK-5HT2AR-D2R, with quinpirole (10^−5 M)): 46 ± 3%

NCCc1c[nH]c2ccc(O)cc12 [5-HT, serotonin]
Emax (inositol phosphate production) [4]: 647 ± 74 cpm | Emax (inositol phosphate production) ([5]; vehicle): 608 ± 12 cpm | Emax (inositol phosphate production) ([5]; with quinpirole (10^−5 M)): 589 ± 22 cpm | Emax (inositol phosphate production) ([5]; with ropinirole (10^−5 M)): 564 ± 47 cpm

C[C@]12N[C@H](Cc3ccccc31)c1ccccc12 [MK-801, dizocilpine]
Locomotor activity [6]: increased locomotor activity

CCCN1CCC[C@@H]2Cc3n[nH]cc3C[C@H]21 [quinpirole]
Effect on affinity of DOI for 5-HT2AR ([1]; mouse striatum, modulator 10^−5 M): significantly higher | Effect on affinity of DOI for 5-HT2AR ([3]; HEK293 co-expressing 5-HT2AR and D2R, modulator 10^−5 M): marked increase | Effect on 5-HT-induced 5-HT2AR-IP3 production [5]: have no effect | Effect on DOI-induced 5-HT2AR-IP3 production [5]: decrease

CCN1CCC[C@H]1CNC(=O)c1c(O)c(Cl)cc(Cl)c1OC [raclopride]
Effect on quinpirole-enhanced DOI affinity for 5-HT2AR [1, 7]: prevents the enhanced effect

CCCN(CCC)CCc1cccc2c1CC(=O)N2 [ropinirole]
Effect on 5-HT-induced 5-HT2AR-IP3 production [5]: have no effect | Effect on DOI-induced 5-HT2AR-IP3 production [5]: decrease
